Measurements from patent US6914045B2, “Glycopeptide antibiotics” (Wyeth Holdings Corporation, priority 2001, dated 2005).
≈ marks a conversion by molar mass, not a printed value.

Key:
Test in all cases: in vitro antibacterial evaluation, MIC by broth dilution
Format in all cases: cell-based
Enterococcus sp. = details: broth dilution, 18 hours at 35° C.
Experimental: (§1) Methods for in vitro Antibacterial Evaluation (Table 1)
(§2) The minimum inhibitory concentration (MIC), the lowest concentration of the antibiotic which inhibits growth of the test organism, is determined by the broth dilution method using Muller-Hinton II […] (Baltimore Biological Laboratories) following the recommendations of the National Committee for Clinical Laboratory Standards [Methods for dilution antimicrobial susceptibility tests for bacteria that grow aerobically, approved standard M7-A2, National Committee for Clinical Laboratory Standards, Villanova, Pa.].
(§3) An inoculum level of 5×10^5 CFU/mL, and a range of antibiotic concentrations (64-0.06 μg/mL) is used. […] The test organisms include a spectrum of Gram-positive bacteria comprised of Staphylococcus sp., Streptococcus sp. and Enterococcus sp. These organisms include recent clinical isolates that are resistant to methicillin, penicillin and/or vancomycin.

Streptococcus sp. = details: broth dilution, 18 hours at 35° C.
Experimental: as §1, §2, §3

Staphylococcus sp. = details: broth dilution, 18 hours at 35° C.; for MIC Staphylococcus aureus (ATCC 29213): strain ATCC 29213; for MIC Staphylococcus aureus (GC 1131): strain GC 1131; for MIC Staphylococcus aureus (GC 3051): strain GC 3051; for MIC Staphylococcus aureus (GC 3053): strain GC 3053; for MIC Staphylococcus aureus (GC 4541): strain GC 4541; for MIC Staphylococcus aureus (GC 4542): strain GC 4542; for MIC Staphylococcus aureus-SMITH (GC 4543): strain GC 4543; for MIC Staphylococcus aureus (GC 4544): strain GC 4544; for MIC Staphylococcus aureus (GC 4545): strain GC 4545; for MIC Staphylococcus haemolyticus (GC 4546): strain GC 4546; for MIC Coagulase Negative Staphylococcus (GC 4547): strain GC 4547; for MIC Coagulase Negative Staphylococcus (GC 4548): strain GC 4548; for MIC Coagulase Negative Staphylococcus (GC 4549): strain GC 4549; for MIC Coagulase Negative Staphylococcus (GC 4551): strain GC 4551
Experimental: as §1, §2, §3

Escherichia coli = details: 18 hours at 35° C.
How it was run: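 Broth dilution MIC per NCCLS M7-A2 in Mueller-Hinton II medium, inoculum 5×10^5 CFU/mL, antibiotic range 64-0.06 μg/mL. MIC taken as lowest concentration inhibiting growth.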

Compound: CC(c1ccccc1)C1NC(=O)CNC(=O)C(CO)NC(=O)C(C(O)C2CNC(=N)N2C2OC(CO)C(O)C(O)C2O)NC(=O)C(C(O)C2CNC(=N)N2)NC(=O)C(Cc2ccc3oc(-c4ccc(Br)cc4)nc3c2)NC1=O (stereo not drawn) [Example 27, Cyclo[3-[2-(4-bromophenyl)-1,3-benzoxazol-5-yl]alanyl-3-(2-iminoimidazolidin-4-yl)seryl-3-(3-hexopyranosyl-2-iminoimidazolidin-4-yl)serylserylglycyl-β-methylphenylalanyl]]
- MIC Enterococcus faecalis (ATCC 29212) (Enterococcus sp.; strain ATCC 29212): 32 µg/mL (≈ 27.8 µM)
- MIC Enterococcus faecalis (GC 2242) (Enterococcus sp.; strain GC 2242): 32 µg/mL (≈ 27.8 µM)
- MIC Enterococcus faecium (GC 2243) (Enterococcus sp.; strain GC 2243): 32 µg/mL (≈ 27.8 µM)
- MIC Enterococcus faecalis (GC 2691) (Enterococcus sp.; strain GC 2691): 32 µg/mL (≈ 27.8 µM)
- MIC Enterococcus faecalis (GC 3059) (Enterococcus sp.; strain GC 3059): 32 µg/mL (≈ 27.8 µM)
- MIC Enterococcus faecalis (GC 4552) (Enterococcus sp.; strain GC 4552): 64 µg/mL (≈ 55.6 µM)
- MIC Enterococcus faecalis (GC 4553) (Enterococcus sp.; strain GC 4553): 16 µg/mL (≈ 13.9 µM)
- MIC Enterococcus faecalis (GC 4554) (Enterococcus sp.; strain GC 4554): 32 µg/mL (≈ 27.8 µM)
- MIC Enterococcus faecium (GC 4556) (Enterococcus sp.; strain GC 4556): 64 µg/mL (≈ 55.6 µM)
- MIC Enterococcus faecium (GC 4557) (Enterococcus sp.; strain GC 4557): 8 µg/mL (≈ 6.95 µM)
- MIC Enterococcus avium (GC 4558) (Enterococcus sp.; strain GC 4558): 16 µg/mL (≈ 13.9 µM)
- MIC Enterococcus faecalis (GC 6189) (Enterococcus sp.; strain GC 6189): 32 µg/mL (≈ 27.8 µM)
- MIC Streptococcus pneumoniae (ATCC 6301) (Streptococcus sp.; strain ATCC 6301): 16 µg/mL (≈ 13.9 µM)
- MIC Streptococcus pneumoniae (GC 1894) (Streptococcus sp.; strain GC 1894): 32 µg/mL (≈ 27.8 µM)
- MIC Streptococcus pyogenes (GC 4563) (Streptococcus sp.; strain GC 4563): 8 µg/mL (≈ 6.95 µM)
- MIC Streptococcus agalactiae (GC 4564) (Streptococcus sp.; strain GC 4564): 32 µg/mL (≈ 27.8 µM)
- MIC Streptococcus pneumoniae (GC 4565) (Streptococcus sp.; strain GC 4565): 16 µg/mL (≈ 13.9 µM)
- MIC Staphylococcus aureus (ATCC 29213) (Staphylococcus sp.): 8 µg/mL (≈ 6.95 µM)
- MIC Staphylococcus aureus (GC 1131) (Staphylococcus sp.): 16 µg/mL (≈ 13.9 µM)
- MIC Staphylococcus aureus (GC 3051) (Staphylococcus sp.): 16 µg/mL (≈ 13.9 µM)
- MIC Staphylococcus aureus (GC 3053) (Staphylococcus sp.): 8 µg/mL (≈ 6.95 µM)
- MIC Staphylococcus aureus (GC 4541) (Staphylococcus sp.): 16 µg/mL (≈ 13.9 µM)
- MIC Staphylococcus aureus (GC 4542) (Staphylococcus sp.): 8 µg/mL (≈ 6.95 µM)
- MIC Staphylococcus aureus-SMITH (GC 4543) (Staphylococcus sp.): 8 µg/mL (≈ 6.95 µM)
- MIC Staphylococcus aureus (GC 4544) (Staphylococcus sp.): 8 µg/mL (≈ 6.95 µM)
- MIC Staphylococcus aureus (GC 4545) (Staphylococcus sp.): 8 µg/mL (≈ 6.95 µM)
- MIC Staphylococcus haemolyticus (GC 4546) (Staphylococcus sp.): 4 µg/mL (≈ 3.48 µM)
- MIC Coagulase Negative Staphylococcus (GC 4547) (Staphylococcus sp.): 8 µg/mL (≈ 6.95 µM)
- MIC Coagulase Negative Staphylococcus (GC 4548) (Staphylococcus sp.): 8 µg/mL (≈ 6.95 µM)
- MIC Coagulase Negative Staphylococcus (GC 4549) (Staphylococcus sp.): 8 µg/mL (≈ 6.95 µM)
- MIC Coagulase Negative Staphylococcus (GC 4551) (Staphylococcus sp.): 8 µg/mL (≈ 6.95 µM)
- MIC Coagulase Negative Staphylococcus (GC 6257) (Staphylococcus sp.; strain GC 6257): 4 µg/mL (≈ 3.48 µM)
- MIC Escherichia coli (ATCC 25922) (Escherichia coli; strain ATCC 25922, broth dilution): 32 µg/mL (≈ 27.8 µM)
- MIC Escherichia coli (GC 4559) (Escherichia coli; strain GC 4559, broth dilution): 32 µg/mL (≈ 27.8 µM)
- MIC Escherichia coli (GC 4560) (Escherichia coli; strain GC 4560, broth dilution): 8 µg/mL (≈ 6.95 µM)

Compound: CC(c1ccccc1)C1NC(=O)CNC(=O)C(CO)NC(=O)C(C(O)C2CNC(=N)N2C2OC(CO)C(O)C(O)C2O)NC(=O)C(C(O)C2CNC(=N)N2)NC(=O)C(Cc2ccc(OC3OC(CO)C(OC4OC5COC6(CC7CCC6(C)C7(C)C)OC5C(O)C4O)C(O)C3O)cc2)NC1=O (centres unmarked) [Example 215]
- MIC Enterococcus avium (GC 4558) (Enterococcus sp.): 0.5 µg/mL (≈ 0.35 µM)
- MIC Enterococcus faecalis (ATCC 29212) (Enterococcus sp.): 0.5 µg/mL (≈ 0.35 µM)
- MIC Enterococcus faecalis (GC 2242) (Enterococcus sp.): 1 µg/mL (≈ 0.7 µM)
- MIC Enterococcus faecalis (GC 2691) (Enterococcus sp.): 1 µg/mL (≈ 0.7 µM)
- MIC Enterococcus faecalis (GC 3059) (Enterococcus sp.): 1 µg/mL (≈ 0.7 µM)
- MIC Enterococcus faecalis (GC 4552) (Enterococcus sp.): 1 µg/mL (≈ 0.7 µM)
- MIC Enterococcus faecalis (GC 4553) (Enterococcus sp.): 0.5 µg/mL (≈ 0.35 µM)
- MIC Enterococcus faecalis (GC 4554) (Enterococcus sp.): 1 µg/mL (≈ 0.7 µM)
- MIC Enterococcus faecalis (GC 6189) (Enterococcus sp.): 1 µg/mL (≈ 0.7 µM)
- MIC Enterococcus faecium (GC 2243) (Enterococcus sp.): 0.5 µg/mL (≈ 0.35 µM)
- MIC Enterococcus faecium (GC 4556) (Enterococcus sp.): 1 µg/mL (≈ 0.7 µM)
- MIC Enterococcus faecium (GC 4557) (Enterococcus sp.): 0.5 µg/mL (≈ 0.35 µM)
- MIC Enterococcus faecalis (ATCC 29212) (Enterococcus sp.; inoculum 5×10^5 CFU/mL, strain ATCC 29212): 0.5 µg/mL (≈ 0.35 µM)
- MIC Enterococcus faecalis (GC 2242) (Enterococcus sp.; inoculum 5×10^5 CFU/mL, strain GC 2242): 1 µg/mL (≈ 0.7 µM)
- MIC Enterococcus faecium (GC 2243) (Enterococcus sp.; inoculum 5×10^5 CFU/mL, strain GC 2243): 0.5 µg/mL (≈ 0.35 µM)
- MIC Enterococcus faecalis (GC 2691) (Enterococcus sp.; inoculum 5×10^5 CFU/mL, strain GC 2691): 1 µg/mL (≈ 0.7 µM)
- MIC Enterococcus faecalis (GC 3059) (Enterococcus sp.; inoculum 5×10^5 CFU/mL, strain GC 3059): 1 µg/mL (≈ 0.7 µM)
- MIC Enterococcus faecalis (GC 4552) (Enterococcus sp.; inoculum 5×10^5 CFU/mL, strain GC 4552): 1 µg/mL (≈ 0.7 µM)
- MIC Enterococcus faecalis (GC 4553) (Enterococcus sp.; inoculum 5×10^5 CFU/mL, strain GC 4553): 0.5 µg/mL (≈ 0.35 µM)
- MIC Enterococcus faecalis (GC 4554) (Enterococcus sp.; inoculum 5×10^5 CFU/mL, strain GC 4554): 1 µg/mL (≈ 0.7 µM)
- MIC Enterococcus faecium (GC 4556) (Enterococcus sp.; inoculum 5×10^5 CFU/mL, strain GC 4556): 1 µg/mL (≈ 0.7 µM)
- MIC Enterococcus faecium (GC 4557) (Enterococcus sp.; inoculum 5×10^5 CFU/mL, strain GC 4557): 0.5 µg/mL (≈ 0.35 µM)
- MIC Enterococcus avium (GC 4558) (Enterococcus sp.; inoculum 5×10^5 CFU/mL, strain GC 4558): 0.5 µg/mL (≈ 0.35 µM)
- MIC Enterococcus faecalis (GC 6189) (Enterococcus sp.; inoculum 5×10^5 CFU/mL, strain GC 6189): 1 µg/mL (≈ 0.7 µM)
- MIC Streptococcus agalactiae (GC 4564) (Streptococcus sp.): <0.12 µg/mL
- MIC Streptococcus pneumoniae (ATCC 6301) (Streptococcus sp.): <0.12 µg/mL
- MIC Streptococcus pneumoniae (GC 1894) (Streptococcus sp.): <0.12 µg/mL
- MIC Streptococcus pneumoniae (GC 4565) (Streptococcus sp.): <0.12 µg/mL
- MIC Streptococcus pyogenes (GC 4563) (Streptococcus sp.): <0.12 µg/mL
- MIC Streptococcus pneumoniae (ATCC 6301) (Streptococcus sp.; inoculum 5×10^5 CFU/mL, strain ATCC 6301): <0.12 µg/mL
- MIC Streptococcus pneumoniae (GC 1894) (Streptococcus sp.; inoculum 5×10^5 CFU/mL, strain GC 1894): <0.12 µg/mL
- MIC Streptococcus pyogenes (GC 4563) (Streptococcus sp.; inoculum 5×10^5 CFU/mL, strain GC 4563): <0.12 µg/mL
- MIC Streptococcus agalactiae (GC 4564) (Streptococcus sp.; inoculum 5×10^5 CFU/mL, strain GC 4564): <0.12 µg/mL
- MIC Streptococcus pneumoniae (GC 4565) (Streptococcus sp.; inoculum 5×10^5 CFU/mL, strain GC 4565): <0.12 µg/mL
- MIC Staphylococcus aureus (ATCC 29213) (Staphylococcus sp.): 0.5 µg/mL (≈ 0.35 µM)
- MIC Staphylococcus aureus (GC 1131) (Staphylococcus sp.): 0.5 µg/mL (≈ 0.35 µM)
- MIC Staphylococcus aureus (GC 3051) (Staphylococcus sp.): 0.5 µg/mL (≈ 0.35 µM)
- MIC Staphylococcus aureus (GC 3053) (Staphylococcus sp.): 1 µg/mL (≈ 0.7 µM)
- MIC Staphylococcus aureus (GC 4541) (Staphylococcus sp.): 0.5 µg/mL (≈ 0.35 µM)
- MIC Staphylococcus aureus (GC 4542) (Staphylococcus sp.): 0.5 µg/mL (≈ 0.35 µM)
- MIC Staphylococcus aureus-SMITH (GC 4543) (Staphylococcus sp.): <0.12 µg/mL
- MIC Staphylococcus aureus (GC 4544) (Staphylococcus sp.): 0.5 µg/mL (≈ 0.35 µM)
- MIC Staphylococcus aureus (GC 4545) (Staphylococcus sp.): 1 µg/mL (≈ 0.7 µM)
- MIC Staphylococcus haemolyticus (GC 4546) (Staphylococcus sp.): 0.5 µg/mL (≈ 0.35 µM)
- MIC Coagulase Negative Staphylococcus (GC 4547) (Staphylococcus sp.): 0.5 µg/mL (≈ 0.35 µM)
- MIC Coagulase Negative Staphylococcus (GC 4548) (Staphylococcus sp.): 0.5 µg/mL (≈ 0.35 µM)
- MIC Coagulase Negative Staphylococcus (GC 4549) (Staphylococcus sp.): <0.12 µg/mL
- MIC Coagulase Negative Staphylococcus (GC 4551) (Staphylococcus sp.): 0.5 µg/mL (≈ 0.35 µM)
- MIC Escherichia coli (ATCC 25922) (Escherichia coli): 32 µg/mL (≈ 22.4 µM)
- MIC Escherichia coli (GC 4559) (Escherichia coli): 32 µg/mL (≈ 22.4 µM)
- MIC Escherichia coli (GC 4560) (Escherichia coli): 1 µg/mL (≈ 0.7 µM)
